Assay results published in article PMC5020691, “Cell wall degradation is required for normal starch mobilisation in barley endosperm” (Scientific Reports, 2016).
Blank lines part the entries; values can stand above or below the compound they belong to.

How the values were obtained:
Agl97 (maltase) [1] = target: T1, Agl97 (maltase) (Hordeum vulgare, UniProt Q9LLY2); test: 4-nitrophenol release, absorbance […] nm; assay type: biochemical; conditions: 0.6 mM, 50 mM sodium acetate pH 4.5, 5 mM CaCl2, 37 °C
T1 construct: purified recombinant
T1 sequence (Q9LLY2 24-879): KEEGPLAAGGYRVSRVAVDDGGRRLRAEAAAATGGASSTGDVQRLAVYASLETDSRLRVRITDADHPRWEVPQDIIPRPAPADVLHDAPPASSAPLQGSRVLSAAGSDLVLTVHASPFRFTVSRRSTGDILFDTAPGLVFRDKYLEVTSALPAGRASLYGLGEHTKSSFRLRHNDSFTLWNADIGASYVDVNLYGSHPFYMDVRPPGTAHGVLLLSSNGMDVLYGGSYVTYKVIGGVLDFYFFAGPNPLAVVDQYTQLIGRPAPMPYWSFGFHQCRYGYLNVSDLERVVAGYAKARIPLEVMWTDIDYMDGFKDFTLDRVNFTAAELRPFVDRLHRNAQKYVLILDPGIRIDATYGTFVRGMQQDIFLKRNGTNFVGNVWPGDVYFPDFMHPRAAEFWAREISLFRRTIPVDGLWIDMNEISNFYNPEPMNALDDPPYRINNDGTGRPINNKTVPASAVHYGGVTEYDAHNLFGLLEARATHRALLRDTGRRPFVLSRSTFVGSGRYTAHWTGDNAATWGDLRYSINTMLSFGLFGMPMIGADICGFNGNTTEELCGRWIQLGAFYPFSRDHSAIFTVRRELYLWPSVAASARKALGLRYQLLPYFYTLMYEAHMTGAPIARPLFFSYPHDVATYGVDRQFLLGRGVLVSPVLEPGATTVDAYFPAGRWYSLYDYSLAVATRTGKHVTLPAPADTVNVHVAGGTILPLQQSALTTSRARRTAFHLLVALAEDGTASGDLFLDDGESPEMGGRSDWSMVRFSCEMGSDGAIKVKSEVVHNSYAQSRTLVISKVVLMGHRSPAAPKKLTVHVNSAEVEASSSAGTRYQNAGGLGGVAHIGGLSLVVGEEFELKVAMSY

Agl97 (maltase) [2] = target: T1, Agl97 (maltase); test: inhibition of pNPG hydrolysis, absorbance […] nm; assay type: biochemical; conditions: 0.01-100 µM LAB; 0.6 mM pNPG, 50 mM sodium acetate pH 4.5, 5 mM CaCl2, 37 °C
[3] = target: AXAH activity of barley endosperm (arabinoxylan arabinofuranohydrolase, endogenous) (barley (endogenous in endosperm of cv NFC Tipple)); test: SEC; endosperm extracts of seedlings at 4-10 dpi on a Sephacryl size exclusion column in 50 mM Tris/HCl pH 7.5, 150 mM NaCl; fractions assayed for enzyme activity; size estimated against protein standards

Compound: O=[N+]([O-])c1ccc(O[C@H]2O[C@H](CO)[C@@H](O)[C@H](O)[C@H]2O)cc1 [4-nitrophenyl α-D-glucopyranoside]
4-nitrophenol release, absorbance 405 nm (Agl97 (maltase) [1]): Purified recombinant Agl97 was assayed with pNPG

Compound: OC[C@@H]1NC[C@H](O)[C@H]1O [LAB, 1,4-dideoxy-1,4-imino-L-arabinitol]
% inhibition (Agl97 (maltase) [2]): LAB inhibited the activity of purified recombinant maltase (Agl97)

stoichiometry N [3]: 2
Compound: AXAH activity of barley endosperm (arabinoxylan arabinofuranohydrolase, endogenous) (enzyme)
